In patent US4352803A, “Novel naphthyridine derivatives, intermediates thereof, processes for preparation thereof, and use thereof” (Dainippon Pharmaceutical Co., Ltd., priority 1978, dated 1982):
Values after ≈ are worked out from the molar mass of the structure shown. “Also recorded” adds a separate entry of the source. Like-named read-outs stand apart in the source and are kept apart here.

How the values were obtained:
[1] = test system: Proteus mirabilis P-2381; test: In vitro antibacterial activity (MIC), Proteus mirabilis P-2381; type: cell-based
Description: (§1) (MIC) (μg/ml) Method; Chemotherapy, 22(6), 1126 (1974)

[2] = test system: Proteus morganii Kono; test: In vitro antibacterial activity (MIC), Proteus morganii Kono; type: cell-based; conditions: Morganella morganii, read-out: minimum inhibitory concentration (MIC)
Description: as §1

[3] = test system: Klebsiella pneumoniae No. 13; test: In vitro antibacterial activity (MIC), Klebsiella pneumoniae No. 13; type: cell-based
Description: as §1

[4] = test system: Shigella flexneri 4a P-330; test: In vitro antibacterial activity (MIC), Shigella flexneri 4a P-330; type: cell-based; conditions: 4AP330, read-out: minimum inhibitory concentration (MIC)
Description: as §1

[5] = test system: Escherichia coli P-140a; test: In vitro antibacterial activity (MIC), Escherichia coli P-140a; type: cell-based; conditions: Escherichia coli, read-out: minimum inhibitory concentration (MIC)
Description: as §1

[6] = test system: Enterobacter cloacae P-2540; test: In vitro antibacterial activity (MIC), Enterobacter cloacae P-2540; type: cell-based
Description: as §1

[7] = test system: Salmonella typhimurium 8-9; test: In vitro antibacterial activity (MIC), Salmonella typhimurium 8-9; type: cell-based; conditions: Salmonella enterica, read-out: minimum inhibitory concentration (MIC)
Description: as §1

[8] = test system: Staphylococcus aureus No. 50774; test: in vivo efficacy against systemic infection in mice, Staphylococcus aureus No. 50774; conditions: NO.50774, in Mus musculus, po, 336 h
Method: Male mice (ddY) weighing about 20 g
Intravenous infection with (about
5 × 10^8 cells/mouse) of a bacterial
(§2) Twice, about 5 minutes and 6 hours after infection.

[9] = test system: Escherichia coli P-5101; test: In vitro antibacterial activity (MIC), Escherichia coli P-5101; type: cell-based
Description: as §1

[10] = test system: Salmonella enteritidis No. 1891; test: In vitro antibacterial activity (MIC), Salmonella enteritidis No. 1891; type: cell-based; conditions: Salmonella enterica, read-out: minimum inhibitory concentration (MIC)
Description: as §1

[11] = test system: Shigella flexneri 2a; test: In vitro antibacterial activity (MIC), Shigella flexneri 2a; type: cell-based; conditions: read-out: minimum inhibitory concentration (MIC)
Description: as §1

[12] = test system: Escherichia coli NIHJ JC-2; test: In vitro antibacterial activity (MIC), Escherichia coli NIHJ JC-2; type: cell-based; conditions: Escherichia coli, NIHJJC2, read-out: minimum inhibitory concentration (MIC)
Description: as §1

[13] = test system: Staphylococcus aureus No. 50774; test: In vitro antibacterial activity (MIC), Staphylococcus aureus No. 50774; type: cell-based
Description: as §1

[14] = test system: Staphylococcus aureus 209P JC-1; test: In vitro antibacterial activity (MIC), Staphylococcus aureus 209P JC-1; type: cell-based; conditions: Staphylococcus aureus 209P JC-1; read-out: minimum inhibitory concentration (MIC)
Description: as §1

[15] = test system: Corynebacterium pyogenes C-21; test: In vitro antibacterial activity (MIC), Corynebacterium pyogenes C-21; type: cell-based; conditions: Rhodococcus (subgen. Prescottella) equi, C21; Corynebacterium pyogenes C-21; read-out: minimum inhibitory concentration (MIC)
Description: as §1

[16] = test system: Serratia marcescens IFC 3736; test: In vitro antibacterial activity (MIC), Serratia marcescens IFC 3736; type: cell-based
Description: as §1

[17] = test system: Pseudomonas aeruginosa No. 12; test: In vitro antibacterial activity (MIC), Pseudomonas aeruginosa No. 12; type: cell-based; conditions: Pseudomonas aeruginosa No. 12; read-out: minimum inhibitory concentration (MIC)
Description: as §1

[18] = test system: Pseudomonas aeruginosa Tsuchijima; test: In vitro antibacterial activity (MIC), Pseudomonas aeruginosa Tsuchijima; type: cell-based; conditions: Pseudomonas aeruginosa Tsuchijima; read-out: minimum inhibitory concentration (MIC)
Description: as §1

[19] = test system: Gram-positive and Gram-negative bacteria; test: in vivo therapeutic efficacy against systemic infections in mice (overall); set-up: species or system mice (ddY); conditions: systemic infections with Gram-positive and Gram-negative bacteria
[20] = test system: Gram-positive bacteria and Gram-negative bacteria; test: In vitro antibacterial activity against 19 strains of bacteria (overall); type: cell-based; conditions: comparisons are with compounds of the invention
Description: as §1

[21] = test system: Pseudomonas aeruginosa No. 12; test: in vivo efficacy against systemic infection in mice, Pseudomonas aeruginosa No. 12; conditions: NO.12, in Mus musculus, po, 168 h
Method: Male mice (ddY) weighing about 20 g
(3) Pseudomonas aeruginosa No. 12;
(about 5 × 10^3 cells/mouse) of a bacterial
(§3) suspension in trypto-soy broth with 4% mucin.
as §2
The numerals in the table show ED50 (mg/kg). ED50 values were

[22] = test system: Streptococcus faecalis P-2473; test: In vitro antibacterial activity (MIC), Streptococcus faecalis P-2473; type: cell-based; conditions: Enterococcus faecalis, P2473; Streptococcus faecalis P-2473; read-out: minimum inhibitory concentration (MIC)
Description: as §1

[23] = test system: Streptococcus pyogenes 65A; test: In vitro antibacterial activity (MIC), Streptococcus pyogenes 65A; type: cell-based; conditions: read-out: minimum inhibitory concentration (MIC)
Description: as §1

[24] = in vivo; conditions: for LD50 at 168 h: mouse, in vivo, po
Method: The number of dead mice was counted after 7 days, and the value of median lethal dose (LD50, mg/kg) was calculated in accordance with the Behrens-Kaerber method.

[25] = test system: Escherichia coli P-5101; test: in vivo efficacy against systemic infection in mice, Escherichia coli P-5101; conditions: P5101, in Mus musculus, po, 168 h
Method: Male mice (ddY) weighing about 20 g
Intraperitoneal infection with (about
9 × 10^6 cells/mouse) of a bacterial
as §3, §2

[26] = P2381, Proteus mirabilis P-2381, read-out: minimum inhibitory concentration (MIC)
[27] = Enterobacter cloacae, P2540, read-out: minimum inhibitory concentration (MIC)
[28] = P5101, Escherichia coli P-5101, read-out: minimum inhibitory concentration (MIC)
[29] = Staphylococcus aureus No. 50774, read-out: minimum inhibitory concentration (MIC)
[30] = Klebsiella pneumoniae No. 13, read-out: minimum inhibitory concentration (MIC)
[31] = IFC3736, Serratia marcescens IFC 3736, read-out: minimum inhibitory concentration (MIC)

Compound: CCn1cc(C(=O)O)c(=O)c2ccc(N3CCNCC3)nc21 [Compound A, 1-Ethyl-1,4-dihydro-4-oxo-7-(1-piperazinyl)-1,8-naphthyridine-3-carboxylic acid]
- MIC [1, 26]: 25 µg/mL (≈ 82.7 µM)
- MIC [2]: 6.25 µg/mL (≈ 20.7 µM)
- MIC ([3]; Klebsiella pneumoniae, NO.13, read-out: minimum inhibitory concentration (MIC)): 12.5 µg/mL (≈ 41.3 µM)
- MIC [4]: 12.5 µg/mL (≈ 41.3 µM)
- MIC [5]: 6.25 µg/mL (≈ 20.7 µM)
- MIC [6, 27]: 6.25 µg/mL (≈ 20.7 µM)
- MIC ([7]; TYPHIMURIUM): 6.25 µg/mL (≈ 20.7 µM)
- ED50 [8]: > 100 mg/kg
- MIC [9, 28]: 3.13 µg/mL (≈ 10.4 µM)
- MIC ([10]; Salmonella enteritidis No. 1891): 1.56 µg/mL (≈ 5.16 µM)
- MIC [11]: 6.25 µg/mL (≈ 20.7 µM)
- MIC [12]: 6.25 µg/mL (≈ 20.7 µM)
- MIC [13, 29]: 50 µg/mL (≈ 165 µM)
- MIC [14]: 25 µg/mL (≈ 82.7 µM)
- MIC [15]: 50 µg/mL (≈ 165 µM)
- MIC ([16]; Serratia marcescens, IFC3736, read-out: minimum inhibitory concentration (MIC)): 12.5 µg/mL (≈ 41.3 µM)
- MIC [17]: 25 µg/mL (≈ 82.7 µM)
- MIC [18]: 25 µg/mL (≈ 82.7 µM)
- therapeutic effect / in vivo antibacterial activity (in words) [19]: clearly inferior
- antibacterial activity (in words) [20]: much inferior antibacterial activity; also recorded: clearly inferior
- ED50 [21]: > 200 mg/kg
- MIC [22]: > 100 µg/mL
- MIC ([23]; Streptococcus pyogenes 65A): 50 µg/mL (≈ 165 µM)

Compound: CCn1cc(C(=O)O)c(=O)c2cc(F)c(N3CCN(C)CC3)nc21 [Compound B, 1-Ethyl-6-fluoro-1,4-dihydro-7-(4-methyl-1-piperazinyl)-4-oxo-1,8-naphthyridine-3-carboxylic acid]
- MIC [1, 26]: 1.56 µg/mL (≈ 4.67 µM)
- MIC [2]: 0.78 µg/mL (≈ 2.33 µM)
- MIC [3, 30]: 0.39 µg/mL (≈ 1.17 µM)
- toxicity (in words) ([24]; acute, oral, mice): extremely high toxicity
- LD50 at 168 h [24]: 210 mg/kg
- MIC [4]: 0.78 µg/mL (≈ 2.33 µM)
- ED50 [25]: 1.2 mg/kg
- MIC [5]: 0.39 µg/mL (≈ 1.17 µM)
- MIC ([6]; P2540, Enterobacter cloacae P-2540, read-out: minimum inhibitory concentration (MIC)): 0.39 µg/mL (≈ 1.17 µM)
- MIC ([7]; Salmonella typhimurium 8-9): 0.2 µg/mL (≈ 0.598 µM)
- ED50 [8]: 4.8 mg/kg
- MIC [9, 28]: 0.2 µg/mL (≈ 0.598 µM)
- MIC ([10]; ENTERITIDIS): 0.1 µg/mL (≈ 0.299 µM)
- MIC [11]: 0.39 µg/mL (≈ 1.17 µM)
- MIC [12]: 0.39 µg/mL (≈ 1.17 µM)
- MIC [13, 29]: 1.56 µg/mL (≈ 4.67 µM)
- MIC [14]: 1.56 µg/mL (≈ 4.67 µM)
- MIC [15]: 1.56 µg/mL (≈ 4.67 µM)
- MIC [16, 31]: 1.56 µg/mL (≈ 4.67 µM)
- MIC [17]: 3.13 µg/mL (≈ 9.36 µM)
- MIC [18]: 1.56 µg/mL (≈ 4.67 µM)
- antibacterial activity (in words) [20]: equivalent or higher antibacterial activity
- ED50 [21]: 10.6 mg/kg
- MIC [22]: 12.5 µg/mL (≈ 37.4 µM)
- MIC ([23]; Streptococcus pyogenes 65A): 6.25 µg/mL (≈ 18.7 µM)

Compound: CCn1cc(C(=O)O)c(=O)c2cc(Cl)c(N3CCNCC3)cc21 [Compound C, 6-Chloro-1-ethyl-1,4-dihydro-4-oxo-7-(1-piperazinyl)quinoline-3-carboxylic acid]
- MIC ([1]; Proteus mirabilis, P2381, read-out: minimum inhibitory concentration (MIC)): 0.39 µg/mL (≈ 1.16 µM)
- MIC [2]: 0.39 µg/mL (≈ 1.16 µM)
- MIC [3, 30]: 0.78 µg/mL (≈ 2.32 µM)
- LD50 at 168 h [24]: > 2000 mg/kg
- MIC [4]: 0.2 µg/mL (≈ 0.596 µM)
- ED50 [25]: ~15 mg/kg
- MIC [5]: 0.2 µg/mL (≈ 0.596 µM)
- MIC [6, 27]: 0.2 µg/mL (≈ 0.596 µM)
- MIC ([7]; TYPHIMURIUM): 0.2 µg/mL (≈ 0.596 µM)
- ED50 [8]: ~100 mg/kg
- MIC ([9]; Escherichia coli, P5101, read-out: minimum inhibitory concentration (MIC)): 0.2 µg/mL (≈ 0.596 µM)
- MIC ([10]; ENTERITIDIS): 0.2 µg/mL (≈ 0.596 µM)
- MIC [11]: 0.39 µg/mL (≈ 1.16 µM)
- MIC [12]: 0.39 µg/mL (≈ 1.16 µM)
- MIC ([13]; Staphylococcus aureus, NO.50774, read-out: minimum inhibitory concentration (MIC)): 1.56 µg/mL (≈ 4.65 µM)
- MIC [14]: 0.78 µg/mL (≈ 2.32 µM)
- MIC [15]: 1.56 µg/mL (≈ 4.65 µM)
- MIC [16, 31]: 0.78 µg/mL (≈ 2.32 µM)
- MIC [17]: 3.13 µg/mL (≈ 9.32 µM)
- MIC [18]: 3.13 µg/mL (≈ 9.32 µM)
- therapeutic effect / in vivo antibacterial activity (in words) [19]: clearly inferior
- antibacterial activity (in words) [20]: clearly inferior
- ED50 [21]: > 100 mg/kg
- MIC [22]: 6.25 µg/mL (≈ 18.6 µM)
- MIC ([23]; Streptococcus pyogenes, 65A): 6.25 µg/mL (≈ 18.6 µM)
